According to patent US20110086837A1, “COMBINATIONS OF A PI3K INHIBITOR AND A MEK INHIBITOR” (Genentech, Inc., priority 2009, published 2011):

Tests used:
[1] = tested on: A2058 (Melanoma, BRAF V600E, PTEN null) tumors; assay: A2058 xenograft model, tumor growth inhibition; assay type: in vivo, nude mice (nu/nu); conditions: for sensitivity as single agent: A2058 xenograft, tumor growth delay, but not stasis or regression
Protocol: A2058 tumor-bearing animals were tested with both moderate and high doses of GDC-0973 (6 and 10 mg/kg, daily) and GDC-0941 (30 and 100 mg/kg, daily) as well as combinations of the lower and higher doses. […] Likewise, A2058 tumors are also moderately sensitive to single agent GDC-0941 with TGIs of 18% at 30 mg/kg and 56% at 100 mg/kg (FIGS. 3A and B, respectively).

MOLM-16 (AML) tumors = assay: MOLM-16 xenograft model, tumor growth inhibition; assay type: in vivo, nude mice (nu/nu)
Protocol: (A) Treatment was then begun dosing Vehicle (open circles)), GDC-0941 (100 mg/kg, QD, PO; filled triangles), GDC-973 (10 mg/kg, QD, PO; filled squares), or the combination of GDC-0941 and GDC-0973 (filled diamonds, solid lines, n=7). […] Treatment was then begun dosing Vehicle (open circles,), GDC-0941 (100 mg/kg, QD, PO; filled triangles), GDC-0973 (5 mg/kg, QD, PO; filled squares), or the combination of GDC-0941 and GDC-0973 (filled diamonds). Caliper measurements of animals' tumors and animal weights were taken every 3-4 days throughout the study and tumor volumes were calculated (TV=[L×(W^2)]/2) and plotted +/−SEM. Percent tumor growth inhibition was calculated by calculating the area under the curve (AUC) of each treatment group relative to vehicle control. Student's t-tests were performed on day 21 data to determine significance by p-value.
MOLM-16 (AML) tumor-bearing animals were treated with either single agent GDC-0973 (10 mg/kg, daily) or GDC-0941 (100 mg/kg, daily) or the combination of the two.

[2] = tested on: NCI-H2122 (NSCLC, KRAS G12C, PI3K/PTEN WT) tumors; assay: NCI-H2122 xenograft model, tumor growth inhibition; conditions: for sensitivity as single agent: NCI-H2122 xenograft, tumor growth delay, but not stasis or regression
Protocol: NCI-H2122 cells (10×10^6 in Hanks Balance Salt Solution (HBSS)+Matrigel) were inoculated into nude mice (nu/nu) and tumors were allowed to establish to an average volume of ˜240 mm^3. […] Caliper measurements of animals' tumors and animal weights were taken every 3-4 days throughout the study and tumor volumes were calculated (TV=[L×(W^2)]/2) and plotted +/−SEM. Percent tumor growth inhibition was calculated by calculating the area under the curve (AUC) of each treatment group relative to vehicle control. Student's t-tests were performed on day 21 data to determine significance by p-value.
GDC-0973 and GDC-0941 were used as therapeutic agents in the NCI-H2122 (NSCLC, KRAS^G12C, PI3K/PTEN WT) and A2058 (Melanoma, BRAF^V600E, PTEN^null) xenograft models. […]

SKOV-3 (Ovarian) tumors = assay: SKOV-3 xenograft model, tumor growth inhibition; assay type: in vivo; conditions: GDC-0941 single agent, 100 mg/kg daily
Protocol: (B) the […] (ovarian) Xenograph model.
SKOV-3 (Ovarian) tumor-bearing animals were treated with either single agent GDC-0973 (10 mg/kg, daily) or GDC-0941 (100 mg/kg, daily) or the combination of the two. […] The improved efficacy of the combination was statistically significant versus single agent GDC-0973 and GDC-0941 (p=0.0017 and p=0.0283, respectively, on Day 22).

FaDu (HNSCC) tumors = assay: FaDu xenograft model, tumor growth inhibition; assay type: in vivo
Protocol: (A) Treatment was then begun dosing Vehicle (open circles)), GDC-0941 (100 mg/kg, QD, PO; filled triangles), GDC-973 (5 mg/kg, QD, PO; filled squares), or the combination of GDC-0941 and GDC-0973 (filled diamonds, solid lines, n=7). (B) the SKOV-4 (ovarian) Xenograph model. Treatment was then begun dosing Vehicle (open circles,), GDC-0941 (100 mg/kg, QD, PO; filled triangles), GDC-0973 (10 mg/kg, QD, PO; filled squares), or the combination of GDC-0941 and GDC-0973 (filled diamonds). Caliper measurements of animals' tumors and animal weights were taken every 3-4 days throughout the study and tumor volumes were calculated (TV=[L×(W^2)]/2) and plotted +/−SEM. Percent tumor growth inhibition was calculated by calculating the area under the curve (AUC) of each treatment group relative to vehicle control. Student's t-tests were performed on day 21 data to determine significance by p-value.
FaDu (HNSCC) tumor-bearing animals were treated with either single agent GDC-0973 (5 mg/kg, daily) or GDC-0941 (100 mg/kg, daily) or the combination of the two.

[3] = GDC-0941 single agent, 100 mg/kg daily
[4] = GDC-0973 single agent, 10 mg/kg daily

SMILES | sensitivity as single agent [1] | TGI ([1]; GDC-0941 single agent, 30 mg/kg daily) [%] | TGI [1, 3] [%] | percent tumor growth inhibition (% TGI) (MOLM-16 (AML) tumors; [3]) [%] | tumor growth inhibition (TGI, relative to vehicle control) ([2]; GDC-0941 single agent, 30 mg/kg arm (so in the source)) [%] | sensitivity as single agent [2] | % TGI (SKOV-3 (Ovarian) tumors) [%] | percent tumor growth inhibition (% TGI) (FaDu (HNSCC) tumors; [3]) [%] | TGI ([1]; GDC-0973 single agent, 6 mg/kg daily) [%] | TGI [1, 4] [%] | percent tumor growth inhibition (% TGI) (MOLM-16 (AML) tumors; [4]) [%] | tumor growth inhibition (TGI, relative to vehicle control) ([2]; GDC-0973 single agent, 5 mg/kg QD arm) [%] | percent tumor growth inhibition (% TGI) (FaDu (HNSCC) tumors; GDC-0973 single agent, 5 mg/kg daily) [%]
CS(=O)(=O)N1CCN(Cc2cc3nc(-c4cccc5[nH]ncc45)nc(N4CCOCC4)c3s2)CC1 [GDC-0941, 4-(2-(1H-indazol-4-yl)-6-((4-(methylsulfonyl)piperazin-1-yl)methyl)thieno[3,2-d]pyrimidin-4-yl)morpholine] | moderate sensitivity | 18 | 56 | 40 | 73 | moderate sensitivity | 51 | 33 | – | – | – | – | –
O=C(c1ccc(F)c(F)c1Nc1ccc(I)cc1F)N1CC(O)([C@@H]2CCCCN2)C1 [GDC-0973, [3,4-Difluoro-2-(2-fluoro-4-iodo-phenylamino)-phenyl]-((S)-3-hydroxy-3-piperidin-2-yl-azetidin-1-yl)-methanone] | moderate sensitivity | – | – | – | – | moderate sensitivity | – | – | 41 | 62 | 57 | 57 | 41
